Results reported in US20240051992A1, “THIOPHOSPHOPEPTIDES FOR ULTRAFAST TARGETING OF THE GOLGI APPARATUS” (BRANDEIS UNIVERSITY, priority 2021, published 2024).
pIC50: −log10 of the molar value. Where “and” joins values, the source holds several entries; their conditions need not be identical. Equal values may be shown once. Read-outs that look alike come from different tables or passages of the source.

Tests used:
[1] = Critical micelle concentration (CMC) determination by dynamic light scattering; type: physicochemical; details: thiophosphopeptide in deionized water, pH 7.4, DLS
Procedure: Critical micelle concentration (CMC) determination: A series of solutions of compounds (pS1, pS2), from the concentration of 0.0625 μM to 400 μM, were prepared in deionized water and adjusted the pH to 7.4. The count rates of the solutions were measured and recorded by an ALV/DLS/SLS-5000 Light Scattering System, which were converted to the intensity of scattered light and then plotted against concentrations to determine the CMC values. Then, ALP (0.1 U/mL) was added to the series of solutions and after 24 h, the same procedures were proceeded to determine CMC values of dephosphorylated pS1 and pS2 (S1 and S2).

[2] = system: alkaline phosphatase (ALP)
Procedure: Determination of Dephosphorylation Rates in vitro: To determine the dephosphorylation rates of thiophosphopeptides in vitro, pS1, pO1, pS2, pO2 solutions (PBS, pH 7.4) were prepared at concentration of 120 μM and ALP was added into the solutions to make the final concentration of ALP to 0.1 U/mL at 37° C. At the designated time, the same volume of methanol was added to eliminate the activity of ALP. LC/MS was used analyse the results.

HeLa cells = assay: Cytotoxicity against HeLa cells; type: cell-based; details: 24 h
Procedure: (§1) Cell Lines: All cell lines used (HeLa, Saos-2, SJSA-1, OVSAHO, HCC1937, HepG2, OVCAR-4, SKOV-3, MCF-7, HEK293, HS-5) were purchased from the American Type Culture Collection (ATCC, Manassas, VA, USA). HeLa, HepG2, MCF-7 and HEK293 cells were cultured in MEM medium with 10% FBS and 1% P/S (100 U mL^−1 penicillin and 100 μg mL^−1 streptomycin, Invitrogen Life Technologies). Saos-2, SKOV-3 cells were cultured in McCoy's 5A medium with 15% FBS and 1% P/S. HS-5 cells were cultured in DMEM medium with 10% FBS and 1% P/S. SJSA-1, OVSAHO, HCC1937, OVCAR-4 cells were cultured in RPMI-1640 medium with 10% FBS and 1% P/S. All the cells were cultured at 37° C. in a humidified atmosphere of 5% CO2. To determine the cytotoxicity of the compounds, cells were seeded in 96-well cell plate at 1.0×10^4 cells/well for 24 h followed by culture medium removal, and then fresh culture medium containing compounds were added. For fluorescence imaging, cells were seeded in confocal dish at 1.5×10^5 cells/dish for 24 h followed by the addition of fresh medium containing compounds, and then the fluorescence of cells were taken by ZEISS LSM 880 confocal laser scanning microscope with the 63× oil lens.

[3] = Cytotoxicity against HEK293 cells; type: cell-based; details: human
Procedure: as §1

[4] = Cytotoxicity against HS-5 cells; type: cell-based; details: human
Procedure: as §1

Golgi of HeLa cells [5] = assay: Staining of pS2-treated HeLa cells with tetracysteine probe FlAsH-EDT2; type: cell-based; details: pS2 10 μM, 4 h; FlAsH-EDT2 1 μM, 1 h
Procedure: Staining cells with FlAsH-EDT 2: Briefly, after incubating HeLa cell lines (1.5×10^5) in 3.5 cm confocal dish for 24 h at 37° C. in a humidified atmosphere of 5% CO2, we discarded the medium and added fresh medium containing pS2 (10 μM) and incubated them together for 4 h. After 4 h, medium was removed followed by three-time wash by cell imaging buffer to eliminate FBS. Then, we added FlAsH-EDT2 solution (cell imaging buffer, 1 μM) into the confocal dish and incubated the HeLa cells at 37° C. for 1 h. Meanwhile, we prepared 1,2-Ethanedithiol (EDT) solution (cell imaging buffer, 250 μM) and after the one-hour incubation of HeLa cells with FlAsH-EDT2, FlAsH-EDT2 was discarded and EDT solution was added to the confocal dish to eliminate the unspecific binding of FlAsH-EDT2 for 10 min. Ten minutes later, EDT solution was removed and cells were washed with cell imaging buffer three times and the fluorescence images were taken by ZEISS LSM 880 confocal laser scanning microscope.

Golgi of HeLa cells [6] = assay: CLSM fluorescence imaging of Golgi accumulation in HeLa cells; details: for Golgi fluorescence: 4 minutes
[7] = Transmission electron microscopy of pS1 with or without ALP; type: physicochemical; details: 5 μM, without ALP
Procedure: Transmission Electron Microscopy Experiments: The 400 mesh copper grids coated with carbon film was glowing discharged and sample solutions (5 μL of each) was placed onto the grids. After 30 seconds, the sample solution was removed, and the grids were stained by uranyl acetate (2% v/v) and allowed to dry in air. TEM images were obtained with Morgagni 268 transmission electron microscope at the HV of 80 kV with filament of 2.

Saos-2 cells = assay: CLSM rate of fluorescence increase at Golgi, Saos-2; type: cell-based; details: pS1 10 μM
Procedure: as §1, with “lens. […]” for “lens.”

SJSA-1 cells = assay: CLSM rate of fluorescence increase at Golgi, SJSA-1; type: cell-based; details: pS1 10 μM
Procedure: as §1, with “lens. […]” for “lens.”

OVSAHO cells = assay: CLSM rate of fluorescence increase at Golgi, OVSAHO; type: cell-based; details: pS1 10 μM
Procedure: as §1, with “lens. […]” for “lens.”

HCC1937 cells = assay: CLSM rate of fluorescence increase at Golgi, HCC1937; type: cell-based; details: pS1 10 μM
Procedure: as §1, with “lens. […]” for “lens.”

HepG2 cells = assay: CLSM rate of fluorescence increase at Golgi, HepG2; type: cell-based; details: pS1 10 μM
Procedure: as §1, with “lens. […]” for “lens.”

OVCAR4 cells = assay: CLSM rate of fluorescence increase at Golgi, OVCAR-4; type: cell-based; details: pS1 10 μM
Procedure: as §1, with “lens. […]” for “lens.”

SKOV3 cells = assay: CLSM rate of fluorescence increase at Golgi, SKOV-3; type: cell-based; details: pS1 10 μM
Procedure: as §1, with “lens. […]” for “lens.”

MCF7 cells = assay: CLSM rate of fluorescence increase at Golgi, MCF-7; type: cell-based; details: pS1 10 μM
Procedure: as §1, with “lens. […]” for “lens.”

HEK293 cells = assay: CLSM rate of fluorescence increase at Golgi, HEK293; type: cell-based; details: pS1 10 μM
Procedure: as §1, with “lens. […]” for “lens.”

HS-5 cells = assay: CLSM rate of fluorescence increase at Golgi, HS-5; type: cell-based; details: pS1 10 μM
Procedure: as §1, with “lens. […]” for “lens.”

With `O=C(Cc1ccc2ccccc2c1)N[C@H](Cc1ccccc1)C(=O)N[C@H](Cc1ccccc1)C(=O)NCCSP(=O)(O)O` [pS2] the “critical micelle concentration (CMC)” value [1] was 9.5 µM, the “dephosphorylation by ALP (rate, in words)” value (“dephosphorylation by ALP” below) ([2]; 120 μM, ALP 0.1 U/mL, PBS pH 7.4, 37° C.) was “rapid dephosphorylation” and the “conversion to dephosphorylated product” value ([2]; ALP 0.1 U/mL, about 16 minutes) was “nearly fully converted”. For the same compound, the “selectivity against cancer cells (HeLa vs HEK293 and HS-5)” value (HeLa cells; compared with S2) was “more selective than S2”, the pIC50 (HeLa cells; HeLa cells) was 5.55 and ~5.52 and the “inhibitory activity against HeLa cells relative to pO2” value (HeLa cells; HeLa cells) was “an order of magnitude higher than that of pO2”. For the same compound, the “rescue of HeLa cells by cell death inhibitors (Z-VAD-FMK, NAc, Nec-1, DFO, Fer-1, disulfiram)” value (HeLa cells; pS2 10 μM) was “unable to rescue”, the IC50 at 24 h [3] was over 100000 nM and the IC50 at 24 h [4] was over 100000 nM. For the same compound, the “FlAsH-EDT2 staining of treated cells” value (Golgi of HeLa cells [5]) was “fluorescent at the Golgi of the HeLa cells”.
For “NBD-(β-Ala-f-f-NH—(CH2)2-phosphate [pO1, reference compound]”, the “dephosphorylation by ALP” value ([2]; pH 7.4) was “taking longer time for dephosphorylation than that of pS1”, the fluorescence in cells (Golgi of HeLa cells [6]; 10 μM, 8 minutes) was “almost no fluorescence” and the fluorescence in cells (Golgi of HeLa cells [6]; 100, 50, 20 μM, 4 hours) was “several scattered fluorescent puncta in cells”. The “cellular uptake and localisation” value (Golgi of HeLa cells [6]; HeLa cells) was “requires hours for cellular uptake and largely remains in endosomes”.
For “NBD-(β-Ala-f-f-NH—(CH2)2-thiophosphate [pS1]”, the “critical micelle concentration (CMC)” value [1] was 6.0 µM, the “assemblies seen by TEM” value [7] was “micelles” and the “dephosphorylation by ALP” value ([2]; pH 7.4) was “fast dephosphorylation”. For the same compound, the “fluorescence intensity increase at the Golgi” value (Saos-2 cells) was “increase significantly”, the “fluorescence intensity increase at the Golgi” value (SJSA-1 cells) was “increase significantly” and the “fluorescence intensity increase at the Golgi” value (OVSAHO cells) was “increase significantly”. The “fluorescence intensity increase at the Golgi” value (HCC1937 cells) was “increase significantly”, the “fluorescence intensity increase at the Golgi” value (HepG2 cells) was “slightly” and the “fluorescence intensity increase at the Golgi” value (OVCAR4 cells) was “slightly”. For the same compound, the “fluorescence intensity increase at the Golgi” value (SKOV3 cells) was “much slowly”, the “fluorescence intensity increase at the Golgi” value (MCF7 cells) was “much slowly” and the “fluorescence intensity increase at the Golgi” value (HEK293 cells) was “much slowly”. For the same compound, the “fluorescence intensity increase at the Golgi” value (HS-5 cells) was “much slowly”, the “time until distinctive fluorescence appears at the Golgi” value (Golgi of HeLa cells [6]; 500 nM) was 15 min and the Golgi fluorescence (Golgi of HeLa cells [6]; 2 μM) was “much weaker fluorescence at the Golgi”. The Golgi fluorescence (Golgi of HeLa cells [6]; 5 μM) was “green fluorescence clearly still presents at the Golgi, but little at the ER”, the “enhancement of fluorescence intensity at the Golgi from 1 minute to 8 minutes” value (Golgi of HeLa cells [6]; 10 μM) was “about 7 times” and the “onset of fluorescence after addition” value (Golgi of HeLa cells [6]; 10 μM, 0 min) was “appears almost instantly”. The Golgi fluorescence (Golgi of HeLa cells [6]; 10 μM) was “bright green fluorescence presents in Golgi and weak fluorescence in ER”, the “colocalisation of fluorescence with CellLight Golgi-RFP” value (Golgi of HeLa cells [6]; 10 μM, 8 minutes) was “overlaps with the red fluorescence from all Golgi-RFP” and the “cell morphology in DIC image” value (Golgi of HeLa cells [6]; 10 μM, 20 min) was “well-spread HeLa cells”. The “concentration as low as which S1 accumulates at Golgi” value (Golgi of HeLa cells [6]; HeLa cells treated with pS1) was 500 nM, the “fluorescence at Golgi of pretreated cells in fresh culture medium (exocytosis)” value (Golgi of HeLa cells [6]; HeLa pretreated with pS1, fresh medium) was “drops only slightly over time” and the “rate of Golgi accumulation when protein disulfide isomerases (PDIs) are inhibited” value (Golgi of HeLa cells [6]; PDI inhibition) was “slight decrease of the rate of Golgi accumulation”. The “accumulation at Golgi after cytochalasin D (CytD)” value (Golgi of HeLa cells [6]; pS1 10 μM, CytD 0.5, 1.0 μg/mL, 30 min pretreatment) was “decreases the accumulation of S1 at Golgi in a concentration-dependent manner”, the “rate of fluorescence increase at Golgi after ALP inhibitor DQB” value (Golgi of HeLa cells [6]; pS1 10 μM, DQB 20 μM, 30 min pretreatment) was “reduce the rate of fluorescence increase at the Golgi” and the “accumulation at Golgi with N-ethylmaleimide (NEM)” value (Golgi of HeLa cells [6]; pS1 10 μM, NEM 5 mM, 16 min) was “almost completely eliminates the accumulation of S1 at Golgi”. For the same compound, the “rate of fluorescence increase at Golgi after phosphatase inhibitor cocktail set 3 (PIC)” value (Golgi of HeLa cells [6]; pS1 10 μM, PIC 4000×, 30 min pretreatment) was “reduce the rate of fluorescence increase at the Golgi”, the “rate of fluorescence increase at Golgi after phospholipase C (PLC)” value (Golgi of HeLa cells [6]; pS1 10 μM, PLC 0.2 U, 30 min pretreatment) was “slightly faster increase of fluorescence in the Golgi” and the “rate of fluorescence increase at Golgi after methyl-β-cyclodextrin (mβCD)” value (Golgi of HeLa cells [6]; pS1 10 μM, mβCD 5 mM, 30 min pretreatment) was “significantly decreases the rate of the fluorescence increase at the Golgi”. The “accumulation at Golgi with Golgi disruptor brefeldin A (BFA)” value (Golgi of HeLa cells [6]; with BFA) was “abolishes the accumulation”.
